Measurements as given in patent publication US20090156657A1, “ANTI-INFLAMMATORY COMPOSITION” (Ajinomoto Co., Inc., priority 2006, published 2009).

Columns and labels:
NF-κB (p65) = assay: Activation of NF-κB (nuclear translocation of p65) in HAEC stimulated with high glucose; format: cell-based, human; conditions: pre-treatment 5 and 10 μM 24 h, 25 mM glucose 2 h, FIG. 1
Procedure: In the present invention, the term “suppression of NF-κB activation” means suppression of the translocation of NF-κB into the nucleus. The suppression of the translocation of NF-κB into the nucleus can be confirmed by the method described in Example 1. To be specific, a test substance is added to a culture medium of human aortic endothelial cells, the cells are incubated for a predetermined time, the nucleus is extracted from the aforementioned cells stimulated with glucose, and activated NF-κB (p65) translocated into the nucleus is detected. Using the cells before glucose stimulation, wherein NF-κB is not activated, as a negative control and the cells stimulated with glucose and free of addition of a test substance as a positive control, when the detection level of the aforementioned p65 is closer to the negative control than to the positive control, NF-κB activation is evaluated to have been suppressed.
Human aortic endothelial cells (HAEC) were purchased from Clonetics Corp, and the cells cultured for 3-4 passages (37° C., under 5% carbon dioxide gas atmosphere) were used for the experiment. […] Nucleus was extracted from the cells using Nuclear Extract Kit (Active Motif), and then the activated NF-κB (p65) translocated into the nucleus was detected by TransAM NF-κB p65 Kit (Active Motif).

VCAM-1 mRNA = VCAM-1 mRNA expression in HAEC by real-time PCR; format: cell-based, human; conditions: 10 μM 24 h, 25 mM glucose 3 h, GAPDH internal standard, FIG. 3A
Procedure: (§1) HAEC cells pre-treated with 10 μM of CS or FS for 24 hours were stimulated with 25 mM glucose for 3 hours, and total RNA was extracted with Isogenkit (NIPPON GENE CO., LTD.). From 1 μg of RNA, cDNA was synthesized using 100 U/mL of reverse transcriptase (TAKARA BIO INC.) and 0.1 μM of oligo (dT)-adapter (TAKARA BIO INC.) (total volume of reaction mixture; 50 μL) (42° C., 40 minutes). Real-time PCR was performed using 7300 Real Time PCR system (Applied Biosystems Japan Ltd.) and the PCR product was detected by SYBER Green I.
(§2) PCR reaction composition (RT-PCRkit, TAKARA BIO INC.): 12.5 μL Premix Ex Taq, 2.5 μL SYBER Green I, synthesis primer, ROX reference dye, cDNA (corresponding to 20 ng of total RNA), final reaction volume; 25 μL
(§3) Primers having the following sequences were used.
(§4) PCR was conducted under the following conditions.
(§5) thermal denaturation: at 95° C. for 15 seconds, extension reaction: 40 cycles (3 seconds at 95° C., 31 seconds at 60° C.)
(§6) Expression amounts of VCAM-1 and MCP-1 mRNA were calculated using GAPDH as the internal standard.

MCP-1 mRNA = MCP-1 mRNA expression in HAEC by real-time PCR; format: cell-based, human; conditions: 10 μM 24 h, 25 mM glucose 3 h, GAPDH internal standard, FIG. 3B
Procedure: as §1, §2, §3, §4, §5, §6

VCAM-1 = VCAM-1 protein expression on HAEC cell membrane (immunostaining); format: cell-based, human; conditions: 0.1-10 μM 24 h, 25 mM glucose 4 h, FIG. 4A
Procedure: (§7) HAEC cells proliferated to confluence in a 96 well microplate were pre-incubated with 0.1-10 μM serotonin derivative for 24 hours, and stimulated with 25 mM glucose for 4 hours. The cell layer was washed with Hanks solution, and then anti-VCAM-1 monoclonal antibody (Becton Dickinson) was added and the cells were incubated at 37° C. for 1 hour. After washing, the cells were incubated with secondary antibody (peroxidase-labeled anti-mouse IgG goat F(ab′)2 fragment; Cappel) for 1 hour. A color development substrate (o-phenylenediamine dihydrochloride) was added and, about 30 minutes later (room temperature), the absorbance (492 nm) of each well was quantified with a microplate reader. The MCP-1 concentration of the medium was quantified with Human MCP-1 Immunoassay Kit (BioSource International).

MCP-1 = MCP-1 secretion into medium of HAEC (immunoassay); format: cell-based, human; conditions: 0.1-10 μM 24 h, 25 mM glucose 4 h, FIG. 4B
Procedure: as §7

[1] = test system: U-937 monocyte cells / HAEC; assay: Monocyte (U-937) adhesion to HAEC cells; format: cell-based, human; conditions: HAEC pre-incubated 5 or 10 μM 24 h, 25 mM glucose 4 h; FIG. 5
Procedure: HAEC cells proliferated to confluence in a 24 well microplate were pre-incubated with CS and FS (5 or 10 μM each) for 24 hours and stimulated with 25 mM glucose for 4 hours. The cell layer was washed with Hanks solution, and then a suspension (1×10^6/mL, 200 μL) of U-937 monocyte cells (purchased from ATCC) was added, and the mixture was incubated at 37° C. for 30 minutes. After washing again, the cells were fixed with 1% para-formaldehyde and the number of U-937 cells attached onto HAEC was counted under a microscope (20 fields). The experiment was performed 3 times and the results are shown as an average value thereof. An experiment using fluorescence-labeled U-937 cells was also performed. To be specific, U-937 cells were incubated (37° C., 1 hour) in the presence of 10 μM 2′,7′-bis(2-carboxyethyl)-5(6)-carboxyfluorescein acetoxymethylester (BCECF-AM, Molecular Probes) and washed by centrifugation. Fluorescence-labeled U-937 cells (1×10^6/mL) were added to HAEC cells, and the mixture was incubated at 37° C. for 1 hour. The floating U-937 cells were removed, the plate was washed with PBS buffer and treated with 1% Triton X for 2 hours. The fluorescence amount of the attached cells was quantified (Ex. 503 nm, Em. 525 nm) using a fluorescence plate reader (Bio-Rad, Fluoromark).

U-937 cells / HAEC = assay: Migration capability of monocyte (U-937), Transwell system with HAEC; format: cell-based, human; conditions: HAEC pre-incubated 5 or 10 μM 24 h, 25 mM glucose 4 h; FIG. 7
Procedure: The migration capability of monocyte was measured using the Transwell system (pore size 3 μm; BD Biosciences). HAEC cultured on a transwell placed in a 24 well microplate was pre-incubated with 5 or 10 μM serotonin derivative for 24 hours, and stimulated with 25 mM glucose for 4 hours. 200 μL of U-937 cell suspension (10^6 cells/mL) was added to the transwell and the cells were incubated as-is at 37° C. for 2 hours. The number of cells migrated to the lower chamber of the transwell through the membrane was counted under a microscope (20 fields). The experiment was repeated three times, and the results are shown as an average value thereof. An experiment using fluorescence-labeled U-937 cells was also performed. BCECF-AM-labeled U-937 cells were plated in the upper chamber of the transwell and incubated at 37° C. for 2 hours. The cells migrated to the lower chamber through the membrane were collected in 1 mL of PBS buffer and treated with 1% Triton X for 2 hours. The fluorescence derived from the migrated cells was quantified (Ex. 503 nm, Em. 525 nm) using a fluorescence plate reader (Bio-Rad, Fluoromark).

[2] = test system: TNF-α, IL-1α, IL-1β and IL-6 production; conditions: human peripheral blood monocyte stimulated by LPS; cited from earlier work
[3] = test system: IBD model mice (IL-10 deficient cell-transplanted SCID mice); conditions: Ikenoue et al. 2005; cited from earlier work

Row | Compound | nuclear translocation of p65 (activation of NF-κB) (NF-κB (p65)) | expression amount of VCAM-1 mRNA (VCAM-1 mRNA) | expression amount of MCP-1 mRNA (MCP-1 mRNA) | VCAM-1 expression on the cell membrane (VCAM-1) | MCP-1 secretion into the medium (MCP-1) | number of U-937 cells attached onto HAEC (cell count) [1] | number of U-937 cells migrated into subendothelium space (cell count) (U-937 cells / HAEC) | concentration inhibiting production of TNF-α, IL-1α, IL-1β and IL-6 at a transcription level [2] [µM] | condition (chronic inflammation in the intestine) of the IBD model [3]
1 | O=C(/C=C/c1ccc(O)cc1)NCCc1c[nH]c2ccc(O)cc12 [CS, N-(p-coumaroyl)serotonin] | significantly suppressed | significantly suppressed the increase | significantly suppressed the increase | suppressed the induction of their expressions in a dose-dependent manner | suppressed the induction of their expressions in a dose-dependent manner | decreased the number of attached cells in a serotonin derivative dose-dependent manner | significantly decreased | ≥ 50 | 
2 | C[C@]12C=CC(=O)C=C1CC[C@@H]1[C@@H]2[C@@H](O)C[C@@]2(C)[C@H]1CC[C@]2(O)C(=O)CO [prednisolone] |  |  |  |  |  |  |  |  | can be improved
